This is an account of results in patent US20240132477A1, “Benzimidazole Derivatives and Their Use As Inhibitors of ITK For The Treatment of Skin Disease” (PFIZER INC., priority 2020, published 2024).

The target in test [1] is IL-2-Inducible T-Cell Kinase (ITK) (Homo sapiens (Human), UniProt Q08881). In words: ITK enzyme assay. The class given is biochemical. The conditions noted are these: geometric mean of count n; ITK FL enzyme, BTK peptide substrate. As to the method: IL-2-Inducible T-Cell Kinase (ITK) Activity, IC50 (uM)
Chain of IL-2-Inducible T-Cell Kinase (ITK) (Q08881 whole entry): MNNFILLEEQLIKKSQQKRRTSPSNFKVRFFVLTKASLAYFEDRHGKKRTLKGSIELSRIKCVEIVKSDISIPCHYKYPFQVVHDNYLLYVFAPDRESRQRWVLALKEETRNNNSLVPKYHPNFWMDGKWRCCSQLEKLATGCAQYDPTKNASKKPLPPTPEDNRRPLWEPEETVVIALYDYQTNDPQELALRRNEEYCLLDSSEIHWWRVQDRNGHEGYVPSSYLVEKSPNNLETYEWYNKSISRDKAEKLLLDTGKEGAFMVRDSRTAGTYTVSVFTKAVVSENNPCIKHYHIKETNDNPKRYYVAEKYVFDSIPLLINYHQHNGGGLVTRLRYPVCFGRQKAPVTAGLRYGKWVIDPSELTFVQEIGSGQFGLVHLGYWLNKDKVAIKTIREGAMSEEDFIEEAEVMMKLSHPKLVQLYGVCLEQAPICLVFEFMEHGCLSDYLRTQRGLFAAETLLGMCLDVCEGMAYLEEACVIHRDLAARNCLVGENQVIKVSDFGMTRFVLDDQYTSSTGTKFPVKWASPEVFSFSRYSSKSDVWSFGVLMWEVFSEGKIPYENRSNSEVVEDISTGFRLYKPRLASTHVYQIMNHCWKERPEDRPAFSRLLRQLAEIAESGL
ITK activity was determined by measuring the effect of a test compound in an ITK enzyme assay.
1.0 M HEPES Buffer pH 7.5 solution was prepared as follows: 238.3 g HEPES free acid (Sigma) and 800 mL of water were combined, and the mixture was stirred until complete dissolution. The pH was adjusted to 7.5 via titration with 5N NaOH and the volume adjusted to 1000 mL. The solution was filtered and sterilized.
ITK assay buffer was prepared as follows: 50 mL of HPLC-grade water was treated with 2 mL of 1.0 M HEPES Buffer, 500 μL of 2% Gelatin (Sigma), 1.0 mL of aqueous MgCl2 solution (1.0 M), and 1.0 mL of aqueous glutathione solution (0.5 M), and the solution was mixed. The solution was brought to 99 mL in a graduated cylinder by addition of water and sterilized through a 0.2 μm filter. 0.1 mL of Brij-35™ Surfact-AmpS™ Detergent Solution (10% w/v aqueous solution, ThermoFisher) and 1.0 mL of ATP (Teknova, 100 mM) were added and the solution was mixed.
Preparation of 1.33×ITK enzyme solution was as follows: 49.99 mL of ITK assay buffer was treated with 4.1 μL of ITK enzyme (ITK FL (N-Flag and C-His tagged, ˜72 kDa) Lake Pharma, 0.25 mg/ml in a buffer containing 25 mM Tris pH 7.8, 150 mM NaCl, 10% glycerol and 2 mM TCEP) and the mixture was gently agitated. The resulting solution was stored on ice. 30 Minutes prior to use, the enzyme solution was removed from ice and equilibrated to RT by incubation in a RT water bath.
Preparation of 4×ITK substrate solution was as follows: 50 mL of ITK assay buffer was treated with 100 μL of BTK peptide (China Peptide Company, 2 mM stock solution in DMSO). The tube was capped, mixed by gently inverting the tube, and then stored on ice. 30 Minutes prior to use, the substrate solution was removed from ice and equilibrated to RT by incubation in a RT water bath.
At the time of assay, 7.5 μL of the 1.33×ITK enzyme solution was added to plate wells containing 0.1 μL of varying concentrations of test compound in DMSO. The plate was incubated 30 min at RT. The plate wells were each treated with 2.5 uL of the 4×ITK substrate solution and the plate was sealed (TopSeal™, Perkin Elmer). The plate was spun at 1000 rpm for 30 sec and then incubated for 60 min at RT. The seal was removed, and each well was treated with 10 μL of Stop/Detect Buffer (20 mM HEPES pH 7.5, 0.01% gelatin, 1 nM LANCE PT66 (Perkin Elmer), 16.5 μg/ml Surelight APC (Perkin Elmer), 10 mM EDTA, 250 mM NaCl). The plate was again covered and was spun at 1000 rpm for 30 seconds. The plate was allowed to incubate overnight at RT and in a closed carrier to reduce dehydration. The seal was removed, and the fluorescence was read with a plate reader with […]. The concentrations and resulting effect values for the tested compound were plotted and the concentration of compound required for 50% effect (IC50) was determined with the four-parameter logistic dose response equation.

Test [2] deals with IL-2 in supernatants from activated CD4+ human T-cells. The experiment in a line: IL-2 inhibition in supernatants from activated CD4+ human T-cells (cisbio HTRF). The conditions noted are these: T-cell; geometric mean of count n; activated CD4+ human T-cells, 20 to 24 hrs; read-out: IL-2 IC50. The class given is cell-based. The protocol: IL-2-Inhibition Activity, IC50 (uM)
IL-2 inhibition activity in supernatants from activated CD4+ human T-cells was determined by measuring the effect of a test compound on the activity using the cisbio HTRF™ technology.
Human CD4+ T cells were activated with CD3/CD28 for 3 days and expanded for an additional 4-6 days (7 to 9 days total). On day 0, frozen CD4+ T cells were thawed, treated with CD3/CD28 Dynabeads, and incubated at 37° C./5% CO2. On day 3, the beads were removed, and the cells were diluted to 5×10^5 cells/cm^2, placed in G-Rex10 flask, and incubated at 37° C./5% CO2. On day 7 to day 9 the cells were removed from the G-Rex flasks, counted and diluted back to 1×10^6 cells/ml in standard tissue culture flask.
The expanded CD4+ T-cells were centrifuged at 300×g for 10 minutes and resuspended to 0.5 million cells per ml (30,000 cells/well). 60 μl of CD4+ T cells were added per well to a 384 well plate containing 0.1 μL of varying concentrations of test compound in DMSO. The plates were incubated for 15 min at 37° C./5% CO2. 20 μl of diluted ImmunoCult™ (STEMCELL Technologies, 1:12.5 in T cell assay media) were added to all wells of the plate (1:50 final assay concentration). The plates were incubated for an additional 20 to 24 hrs at 37° C./5% CO2. The plates were centrifuged at 300×g for 10 minutes. 16 μL of supernatant was removed and combined with 4 μl of IL-2 HTRF Abs. (cisbio kit). Plates were incubated for 3 hours at RT and read with an EnVision plate reader at 665 nm and 615 nm wavelengths. The concentrations and resulting effect values for the tested compound were plotted and the concentration of compound required for 50% effect (IC50) was determined with the four-parameter logistic dose response equation.
For orientation: Time-resolved FRET reads energy transfer from a long-lived donor to a nearby acceptor.

The IC50 is the point on the concentration scale where inhibition reaches its midpoint. On to `Cc1cc2[nH]c(-c3n[nH]c4c3C[C@@H]3C[C@]3(C)C4)nc2cc1N(C)C(=O)C(C)N1CCCC1=O` (stereo partly drawn) [Example 18, N-Methyl-N-(5-methyl-2-((4aS,5aR)-5a-methyl-1,4,4a,5,5a,6-hexahydrocyclopropa[f]indazol-3-yl)-1H-benzo[d]imidazol-6-yl)-2-(2-oxopyrrolidin-1-yl)propenamide], for which the IC50 was 0.054 µM in test [1] and 0.37 µM in test [2].

Turning to `CC(=O)N(C)c1cc2nc(-c3n[nH]c4c3C[C@@H]3C[C@]3(C)C4)[nH]c2cc1Br` [Example 9, N-(6-bromo-2-((4aS,5aR)-5a-methyl-1,4,4a,5,5a,6-hexahydrocyclopropa[f]indazol-3-yl)-1H-benzo[d]imidazol-5-yl)-N-methylacetamide], the figures for the IC50 in test [1] and in test [2] were 0.02 µM and 0.139 µM, respectively.

As for `Cc1cc2[nH]c(-c3n[nH]c4c3C[C@@H]3C[C@]3(C)C4)nc2cc1N(C)C(=O)C(C)N1CCCCC1` (stereo partly shown) [Example 14], the IC50 was 0.047 µM in test [1] and 0.196 µM in test [2].

Consider `Cc1cc2[nH]c(-c3n[nH]c4c3C[C@@H]3C[C@]3(C)C4)nc2cc1N(C)C(=O)C(C)(C)F` [Example 28, 2-Fluoro-N,2-dimethyl-N-(6-methyl-2-((4aS,5aR)-5a-methyl-1,4,4a,5,5a,6-hexahydrocyclopropa[f]indazol-3-yl)-1H-benzo[d]imidazol-5-yl)propenamide], for which the concentration for half-maximal inhibition (IC50) turned out to be 0.007 µM in test [1] and 0.057 µM in test [2].

For `Cc1cc2[nH]c(-c3n[nH]c4c3C[C@@H]3C[C@]3(C)C4)nc2cc1N(C)C(=O)C1CCC1` [Example 36, N-Methyl-N-(6-methyl-2-((4aS,5aR)-5a-methyl-1,4,4a,5,5a,6-hexahydrocyclopropa[f]indazol-3-yl)-1H-benzo[d]imidazol-5-yl)cyclobutanecarboxamide], the results for the IC50 in test [1] and in test [2] were 0.005 µM and 0.057 µM, respectively.

Turning to `Cc1cc2[nH]c(-c3n[nH]c4c3C[C@@H]3C[C@]3(C)C4)nc2cc1N(C)C(=O)[C@H]1CCOC1` [Example 40, (S)-N-Methyl-N-(6-methyl-2-((4aS,5aR)-5a-methyl-1,4,4a,5,5a,6-hexahydrocyclopropa[f]indazol-3-yl)-1H-benzo[d]imidazol-5-yl)tetrahydrofuran-3-carboxamide], the results for the IC50 in test [1] and in test [2] were 0.013 µM and 0.114 µM, respectively.

In the case of `Cc1cc2[nH]c(-c3n[nH]c4c3C[C@@H]3C[C@]3(C)C4)nc2cc1N(C)C(=O)CN1CCCOC1=O` [Example 1, N-Methyl-N-(6-methyl-2-((4aS,5aR)-5a-methyl-1,4,4a,5,5a,6-hexahydrocyclopropa[f]indazol-3-yl)-1H-benzo[d]imidazol-5-yl)-2-(2-oxo-1,3-oxazinan-3-yl)acetamide], the IC50 in test [1] came out at 0.003 µM; in test [2] it was 0.059 µM.

Turning to `CCCC(=O)N(C)c1cc2nc(-c3n[nH]c4c3C[C@@H]3C[C@]3(C)C4)[nH]c2cc1C` [Example 26, N-Methyl-N-(6-methyl-2-((4aS,5aR)-5a-methyl-1,4,4a,5,5a,6-hexahydrocyclopropa[f]indazol-3-yl)-1H-benzo[d]imidazol-5-yl)butyramide], the values for the IC50 in test [1] and in test [2] were 0.006 µM and 0.047 µM, respectively.

With `Cc1cc2[nH]c(-c3n[nH]c4c3C[C@@H]3C[C@]3(C)C4)nc2cc1N(C)C(=O)C1CC1` [Example 19, N-Methyl-N-(5-methyl-2-((4aS,5aR)-5a-methyl-1,4,4a,5,5a,6-hexahydrocyclopropa[f]indazol-3-yl)-1H-benzo[d]imidazol-6-yl)cyclopropanecarboxamide], the IC50 in test [1] was determined as 0.008 µM; in test [2], 0.067 µM.

With `CCc1cc2[nH]c(-c3n[nH]c4c3C[C@@H]3C[C@]3(C)C4)nc2cc1N(C)C(C)=O` [Example 16, N-(6-ethyl-2-((4aS,5aR)-5a-methyl-1,4,4a,5,5a,6-hexahydrocyclopropa[f]indazol-3-yl)-1H-benzo[d]imidazol-5-yl)-N-methylacetamide], the half-maximal inhibitory concentration (IC50) in test [1] turned out to be 0.023 µM; in test [2] it was 0.118 µM.

As for `CCC(C(=O)N(C)c1cc2nc(-c3n[nH]c4c3C[C@@H]3C[C@]3(C)C4)[nH]c2cc1C)N1CCCC1=O` (stereo partly drawn) [Example 37, N-Methyl-N-(6-methyl-2-((4aS,5aR)-5a-methyl-1,4,4a,5,5a,6-hexahydrocyclopropa[f]indazol-3-yl)-1H-benzo[d]imidazol-5-yl)-2-(2-oxopyrrolidin-1-yl)butanamide], the IC50 in test [1] is 0.061 µM; in test [2], 0.506 µM.

For the compound `Cc1cc2[nH]c(-c3n[nH]c4c3C[C@@H]3C[C@]3(C)C4)nc2cc1N(C)C(=O)[C@H](C)N1CCCC1=O` [Example 25, (S)-N-Methyl-N-(6-methyl-2-((4aS,5aR)-5a-methyl-1,4,4a,5,5a,6-hexahydrocyclopropa[f]indazol-3-yl)-1H-benzo[d]imidazol-5-yl)-2-(2-oxopyrrolidin-1-yl)propenamide], the figures for the IC50 in test [1] and in test [2] were 0.072 µM and 0.572 µM, respectively.

As for `Cc1cc2[nH]c(-c3n[nH]c4c3C[C@@H]3C[C@]3(C)C4)nc2cc1N(C)C(=O)C1(C)CC1` [Example 24, N,1-Dimethyl-N-(5-methyl-2-((4aS,5aR)-5a-methyl-1,4,4a,5,5a,6-hexahydrocyclopropa[f]indazol-3-yl)-1H-benzo[d]imidazol-6-yl)cyclopropane-1-carboxamide], the IC50 in test [1] came to 0.037 µM; in test [2], 0.259 µM.

As to `Cc1cc2[nH]c(-c3n[nH]c4c3C[C@@H]3C[C@]3(C)C4)nc2cc1N(C)C(=O)C(C)N1CCCOCC1` (stereo partly drawn) [Example 15, N-methyl-N-(6-methyl-2-((4aS,5aR)-5a-methyl-1,4,4a,5,5a,6-hexahydrocyclopropa[f]indazol-3-yl)-1H-benzo[d]imidazol-5-yl)-2-(1,4-oxazepan-4-yl)propenamide], the concentration for half-maximal inhibition (IC50) is 0.042 µM in test [1] and 0.166 µM in test [2].
